Source: PubChem BioAssay (NCI)
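GI50 = concentration required for 50% inhibition of growth. The concentration for full growth arrest is given as TGI.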

Legend:
Experiment in all cases: DTP human tumour cell line panel, 384-well format; in the data active means GI50 below about 0.43 µM; inactive means the rest
UACC-62 melanoma = tested on: UACC-62 melanoma
U251 glioblastoma = tested on: U251 glioblastoma
MALME-3M melanoma = tested on: MALME-3M melanoma
CCRF-CEM leukemia = tested on: CCRF-CEM leukemia
BT-549 breast = tested on: BT-549 breast
OVCAR-3 ovarian = tested on: OVCAR-3 ovarian
LOX IMVI melanoma = tested on: LOX IMVI melanoma
786-0 renal = tested on: 786-0 renal
SNB-75 CNS = tested on: SNB-75 CNS
SF-268 CNS = tested on: SF-268 CNS
SK-MEL-5 melanoma = tested on: SK-MEL-5 melanoma
K-562 leukemia = tested on: K-562 leukemia
RPMI-8226 leukemia = tested on: RPMI-8226 leukemia
NCI/ADR-RES ovarian = tested on: NCI/ADR-RES ovarian
NCI-H522 lung = tested on: NCI-H522 lung
SR leukemia = tested on: SR leukemia
DU-145 prostate = tested on: DU-145 prostate
KM12 colon = tested on: KM12 colon
HCC-2998 colon = tested on: HCC-2998 colon
HT29 colon = tested on: HT29 colon
COLO 205 colon = tested on: COLO 205 colon
RXF 393 renal = tested on: RXF 393 renal
MDA-MB-435 melanoma = tested on: MDA-MB-435 melanoma
HCT-116 colon = tested on: HCT-116 colon
NCI-H322M lung = tested on: NCI-H322M lung
M14 melanoma = tested on: M14 melanoma
CAKI-1 renal = tested on: CAKI-1 renal
SK-OV-3 ovarian = tested on: SK-OV-3 ovarian
HL-60(TB) leukemia = tested on: HL-60(TB) leukemia
T-47D breast = tested on: T-47D breast
A498 renal = tested on: A498 renal
NCI-H23 lung = tested on: NCI-H23 lung
SNB-19 CNS = tested on: SNB-19 CNS
HS 578T breast = tested on: HS 578T breast
NCI-H226 lung = tested on: NCI-H226 lung
MOLT-4 leukemia = tested on: MOLT-4 leukemia
HOP-92 NSCLC = tested on: HOP-92 NSCLC
SK-MEL-28 melanoma = tested on: SK-MEL-28 melanoma
A549 NSCLC = tested on: A549 NSCLC
MDA-MB-468 breast = tested on: MDA-MB-468 breast
IGROV1 ovarian = tested on: IGROV1 ovarian
SW-620 colon = tested on: SW-620 colon
HOP-62 NSCLC = tested on: HOP-62 NSCLC
NCI-H460 NSCLC = tested on: NCI-H460 NSCLC
MCF7 breast = tested on: MCF7 breast
TK-10 renal = tested on: TK-10 renal
HCT-15 colon = tested on: HCT-15 colon
EKVX NSCLC = tested on: EKVX NSCLC
MDA-MB-231 breast = tested on: MDA-MB-231 breast
UO-31 renal = tested on: UO-31 renal
PC-3 prostate = tested on: PC-3 prostate
ACHN renal = tested on: ACHN renal
OVCAR-8 ovarian = tested on: OVCAR-8 ovarian
SN12C renal = tested on: SN12C renal
SF-295 CNS = tested on: SF-295 CNS
OVCAR-4 ovarian = tested on: OVCAR-4 ovarian
SF-539 CNS = tested on: SF-539 CNS

Cc1ccc(NC(=O)c2cccc(C(C)(C)C#N)c2)cc1Nc1ccc2ncn(C)c(=O)c2c1
2.55 µM: TGI (HOP-92 NSCLC)
0.908 µM: TGI (SR leukemia)
1.84 µM: TGI (HCC-2998 colon)
active: GI50 (UACC-62 melanoma) 0.0105 µM | GI50 (LOX IMVI melanoma) 0.0358 µM | GI50 (SK-MEL-5 melanoma) 0.0419 µM | GI50 (K-562 leukemia) 0.232 µM | GI50 (SR leukemia) 0.153 µM | GI50 (HCC-2998 colon) 0.0525 µM | GI50 (HT29 colon) 0.0579 µM | GI50 (COLO 205 colon) 0.0246 µM | GI50 (MDA-MB-435 melanoma) 0.0617 µM | GI50 (HCT-116 colon) 0.136 µM | GI50 (M14 melanoma) 0.0119 µM | GI50 (CAKI-1 renal) 0.343 µM | GI50 (HL-60(TB) leukemia) 0.0135 µM | GI50 (NCI-H23 lung) 0.048 µM | GI50 (SK-MEL-28 melanoma) 0.0122 µM | GI50 (MDA-MB-231 breast) 0.036 µM
5.68 µM: TGI (UO-31 renal)
0.106 µM: TGI (M14 melanoma)
44.1 µM: TGI (MDA-MB-468 breast)
1.34 µM: TGI (LOX IMVI melanoma)
13.4 µM: TGI (HCT-116 colon)
0.13 µM: TGI (UACC-62 melanoma)
7 µM: TGI (IGROV1 ovarian)
60.6 µM: TGI (TK-10 renal)
6.08 µM: TGI (MOLT-4 leukemia)
1.78 µM: TGI (SK-MEL-5 melanoma)
> 100 µM: TGI (U251 glioblastoma) | TGI (BT-549 breast) | TGI (OVCAR-3 ovarian) | TGI (786-0 renal) | TGI (SNB-75 CNS) | TGI (SF-268 CNS) | TGI (NCI-H522 lung) | TGI (DU-145 prostate) | TGI (KM12 colon) | TGI (HT29 colon) | TGI (RXF 393 renal) | TGI (MDA-MB-435 melanoma) | TGI (NCI-H322M lung) | TGI (CAKI-1 renal) | TGI (SK-OV-3 ovarian) | TGI (T-47D breast) | TGI (A498 renal) | TGI (SNB-19 CNS) | TGI (NCI-H226 lung) | TGI (A549 NSCLC) | TGI (SW-620 colon) | TGI (HOP-62 NSCLC) | TGI (NCI-H460 NSCLC) | TGI (MCF7 breast) | TGI (HCT-15 colon) | TGI (EKVX NSCLC) | TGI (PC-3 prostate) | TGI (ACHN renal) | TGI (OVCAR-8 ovarian) | TGI (SN12C renal) | TGI (SF-295 CNS) | TGI (OVCAR-4 ovarian) | TGI (SF-539 CNS)
9.66 µM: TGI (HS 578T breast)
3.33 µM: TGI (RPMI-8226 leukemia)
8.52 µM: TGI (COLO 205 colon)
1.06 µM: TGI (K-562 leukemia)
0.0749 µM: TGI (SK-MEL-28 melanoma)
9.99 µM: TGI (CCRF-CEM leukemia)
0.148 µM: TGI (HL-60(TB) leukemia)
inactive: GI50 (U251 glioblastoma) 4.36 µM | GI50 (CCRF-CEM leukemia) 2.19 µM | GI50 (BT-549 breast) 6.99 µM | GI50 (OVCAR-3 ovarian) 3.22 µM | GI50 ([…]-0 renal) 4.85 µM | GI50 (SNB-75 CNS) 7.19 µM | GI50 (SF-268 CNS) 4.8 µM | GI50 (RPMI-8226 leukemia) 1.1 µM | GI50 (NCI/ADR-RES ovarian) 3.06 µM | GI50 (NCI-H522 lung) 4.09 µM | GI50 (DU-145 prostate) 3.63 µM | GI50 (KM12 colon) 0.803 µM | GI50 (RXF 393 renal) 5.05 µM | GI50 (NCI-H322M lung) 2.62 µM | GI50 (SK-OV-3 ovarian) 4.9 µM | GI50 (T-47D breast) 4.42 µM | GI50 (A498 renal) 5.55 µM | GI50 (SNB-19 CNS) 4.82 µM | GI50 (HS 578T breast) 1.92 µM | GI50 (NCI-H226 lung) 2.01 µM | GI50 (MOLT-4 leukemia) 1.86 µM | GI50 (HOP-92 NSCLC) 0.593 µM | GI50 (A549 NSCLC) 3.11 µM | GI50 (MDA-MB-468 breast) 3.53 µM | GI50 (IGROV1 ovarian) 0.935 µM | GI50 (SW-620 colon) 0.798 µM | GI50 (HOP-62 NSCLC) 1.8 µM | GI50 (NCI-H460 NSCLC) 1.47 µM | GI50 (MCF7 breast) 5.97 µM | GI50 (TK-10 renal) 2.92 µM | GI50 (HCT-15 colon) 2.91 µM | GI50 (EKVX NSCLC) 6.79 µM | GI50 (UO-31 renal) 0.527 µM | GI50 (PC-3 prostate) 8.34 µM | GI50 (ACHN renal) 2.22 µM | GI50 (OVCAR-8 ovarian) 2.85 µM | GI50 (SN12C renal) 0.698 µM | GI50 (SF-295 CNS) 4.63 µM | GI50 (OVCAR-4 ovarian) 5.43 µM | GI50 (SF-539 CNS) 7.1 µM
0.0178 µM: TGI (MALME-3M melanoma)
1.43 µM: TGI (NCI-H23 lung)
27.3 µM: TGI (MDA-MB-231 breast)
14.1 µM: TGI (NCI/ADR-RES ovarian)
